Like-named read-outs stand apart in the source and are kept apart here.
Tests used:
[1] = target: H3 histaminergic receptor (Homo sapiens, UniProt Q9Y5N1); assay: PDSP radioligand binding, H3; conditions: read-out: % inhibition at 10 µM
[2] = target: T1, α2B adrenergic receptor (Homo sapiens, UniProt P18089); assay: PDSP radioligand binding, α2B; conditions: for inhibition at 10 µM: read-out: % inhibition at 10 µM; for Ki: full concentration-response curves, n = 3-6 unless noted
T1 sequence (P18089 1-450): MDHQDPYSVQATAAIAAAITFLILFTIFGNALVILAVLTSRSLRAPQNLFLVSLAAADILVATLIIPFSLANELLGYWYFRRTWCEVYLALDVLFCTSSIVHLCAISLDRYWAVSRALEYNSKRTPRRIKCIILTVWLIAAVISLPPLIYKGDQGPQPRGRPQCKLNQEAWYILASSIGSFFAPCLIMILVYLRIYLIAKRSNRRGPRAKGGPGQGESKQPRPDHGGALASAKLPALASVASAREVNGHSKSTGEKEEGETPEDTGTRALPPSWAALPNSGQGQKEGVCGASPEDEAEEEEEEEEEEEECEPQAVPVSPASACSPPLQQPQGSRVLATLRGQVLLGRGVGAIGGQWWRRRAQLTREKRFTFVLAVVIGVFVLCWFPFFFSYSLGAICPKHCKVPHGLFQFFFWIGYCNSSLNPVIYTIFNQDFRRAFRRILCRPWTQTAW

[3] = target: β1 adrenergic receptor (Homo sapiens, UniProt P08588); assay: PDSP radioligand binding, β1; conditions: read-out: % inhibition at 10 µM
[4] = target: T2, α2A adrenergic receptor (Homo sapiens, UniProt P08913); assay: PDSP radioligand binding, α2A; conditions: for inhibition at 10 µM: read-out: % inhibition at 10 µM; for Ki: full concentration-response curves, n = 3-6 unless noted
T2 sequence (P08913 1-465): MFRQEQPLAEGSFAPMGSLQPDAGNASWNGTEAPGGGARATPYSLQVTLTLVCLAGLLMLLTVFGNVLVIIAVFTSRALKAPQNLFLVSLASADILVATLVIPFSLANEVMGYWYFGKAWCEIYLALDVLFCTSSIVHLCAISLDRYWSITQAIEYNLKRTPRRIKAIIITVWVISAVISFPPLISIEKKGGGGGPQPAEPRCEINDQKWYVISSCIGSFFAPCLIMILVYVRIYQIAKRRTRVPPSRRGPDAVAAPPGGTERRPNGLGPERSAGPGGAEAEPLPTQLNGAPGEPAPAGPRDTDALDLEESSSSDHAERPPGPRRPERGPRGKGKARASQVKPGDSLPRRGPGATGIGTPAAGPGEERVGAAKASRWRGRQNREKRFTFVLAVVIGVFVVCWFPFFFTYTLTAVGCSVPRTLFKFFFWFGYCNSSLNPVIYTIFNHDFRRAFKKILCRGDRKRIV

[5] = target: T3, α1A adrenergic receptor (Homo sapiens, UniProt P35348); assay: PDSP radioligand binding, α1A; conditions: read-out: % inhibition at 10 µM
T3 sequence (P35348 1-466): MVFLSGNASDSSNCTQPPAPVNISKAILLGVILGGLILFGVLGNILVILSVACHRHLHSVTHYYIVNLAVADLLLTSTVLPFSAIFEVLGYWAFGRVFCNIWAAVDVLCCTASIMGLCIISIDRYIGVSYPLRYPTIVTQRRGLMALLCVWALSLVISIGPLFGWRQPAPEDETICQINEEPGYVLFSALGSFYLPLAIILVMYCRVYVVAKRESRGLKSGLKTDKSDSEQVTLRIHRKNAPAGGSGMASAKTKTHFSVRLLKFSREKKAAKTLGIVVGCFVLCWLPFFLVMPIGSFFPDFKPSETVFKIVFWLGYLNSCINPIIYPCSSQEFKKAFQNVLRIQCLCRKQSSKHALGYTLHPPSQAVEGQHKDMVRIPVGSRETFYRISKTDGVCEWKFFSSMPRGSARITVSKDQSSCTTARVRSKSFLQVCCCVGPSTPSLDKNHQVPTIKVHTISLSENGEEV

[6] = target: δ opioid receptor (Homo sapiens, UniProt P41143); assay: PDSP radioligand binding, δ opioid; conditions: for inhibition at 10 µM: read-out: % inhibition at 10 µM; for Ki: full concentration-response curves, n = 3-6 unless noted
[7] = target: T4, α1D adrenergic receptor (Homo sapiens, UniProt P25100); assay: PDSP radioligand binding, α1D; conditions: read-out: % inhibition at 10 µM
T4 sequence (P25100 1-572): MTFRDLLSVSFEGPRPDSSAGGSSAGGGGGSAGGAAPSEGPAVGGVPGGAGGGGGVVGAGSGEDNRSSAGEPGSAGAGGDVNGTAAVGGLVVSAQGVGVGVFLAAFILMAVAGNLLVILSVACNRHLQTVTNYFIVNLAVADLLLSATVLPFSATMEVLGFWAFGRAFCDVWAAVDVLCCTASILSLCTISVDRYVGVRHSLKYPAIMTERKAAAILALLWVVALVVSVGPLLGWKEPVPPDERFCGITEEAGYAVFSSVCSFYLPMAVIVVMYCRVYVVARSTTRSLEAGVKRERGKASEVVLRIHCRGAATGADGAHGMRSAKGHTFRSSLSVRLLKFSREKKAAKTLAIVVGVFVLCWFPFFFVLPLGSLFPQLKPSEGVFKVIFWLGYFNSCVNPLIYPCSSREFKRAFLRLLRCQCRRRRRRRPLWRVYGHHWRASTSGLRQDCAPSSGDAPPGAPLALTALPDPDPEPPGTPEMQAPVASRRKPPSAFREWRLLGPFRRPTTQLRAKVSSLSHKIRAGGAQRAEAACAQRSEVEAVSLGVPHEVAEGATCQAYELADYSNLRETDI

[8] = target: T5, σ2 receptor (Rattus norvegicus, UniProt Q5U3Y7); assay: PDSP radioligand binding, σ2; conditions: for inhibition at 10 µM: read-out: % inhibition at 10 µM; for Ki: full curves, n = 2
T5 sequence (Q5U3Y7 1-176): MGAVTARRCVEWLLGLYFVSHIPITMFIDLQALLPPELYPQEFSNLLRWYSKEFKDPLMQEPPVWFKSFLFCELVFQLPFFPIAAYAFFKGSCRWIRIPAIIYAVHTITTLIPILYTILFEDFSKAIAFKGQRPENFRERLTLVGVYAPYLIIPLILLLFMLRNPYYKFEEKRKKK

[9] = target: H4 histaminergic receptor (Homo sapiens, UniProt Q9H3N8); assay: PDSP radioligand binding, H4; conditions: read-out: % inhibition at 10 µM
Sequence of H4 histaminergic receptor (Q9H3N8 whole entry): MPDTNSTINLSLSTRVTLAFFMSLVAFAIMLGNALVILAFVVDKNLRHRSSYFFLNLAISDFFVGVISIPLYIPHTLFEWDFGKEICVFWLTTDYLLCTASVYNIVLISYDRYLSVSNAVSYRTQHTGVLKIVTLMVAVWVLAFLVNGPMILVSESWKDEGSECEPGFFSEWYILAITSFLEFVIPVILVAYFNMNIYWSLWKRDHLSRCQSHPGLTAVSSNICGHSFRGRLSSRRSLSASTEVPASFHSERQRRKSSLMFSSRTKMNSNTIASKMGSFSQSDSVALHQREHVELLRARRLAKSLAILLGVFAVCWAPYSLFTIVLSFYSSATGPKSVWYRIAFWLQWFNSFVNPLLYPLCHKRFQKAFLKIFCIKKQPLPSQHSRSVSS

Sequence of H3 histaminergic receptor (Q9Y5N1 whole entry): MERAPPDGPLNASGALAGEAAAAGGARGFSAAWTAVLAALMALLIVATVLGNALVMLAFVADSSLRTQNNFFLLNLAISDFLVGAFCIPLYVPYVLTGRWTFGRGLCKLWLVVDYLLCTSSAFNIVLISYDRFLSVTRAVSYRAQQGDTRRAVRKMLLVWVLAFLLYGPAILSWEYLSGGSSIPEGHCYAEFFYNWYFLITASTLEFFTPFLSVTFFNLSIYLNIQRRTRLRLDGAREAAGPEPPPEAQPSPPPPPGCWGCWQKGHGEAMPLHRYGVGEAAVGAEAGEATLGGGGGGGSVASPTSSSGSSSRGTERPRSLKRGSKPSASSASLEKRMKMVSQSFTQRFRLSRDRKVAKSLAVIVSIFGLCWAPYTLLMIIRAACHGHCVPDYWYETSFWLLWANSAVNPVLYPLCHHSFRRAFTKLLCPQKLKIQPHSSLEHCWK
Sequence of δ opioid receptor (P41143 whole entry): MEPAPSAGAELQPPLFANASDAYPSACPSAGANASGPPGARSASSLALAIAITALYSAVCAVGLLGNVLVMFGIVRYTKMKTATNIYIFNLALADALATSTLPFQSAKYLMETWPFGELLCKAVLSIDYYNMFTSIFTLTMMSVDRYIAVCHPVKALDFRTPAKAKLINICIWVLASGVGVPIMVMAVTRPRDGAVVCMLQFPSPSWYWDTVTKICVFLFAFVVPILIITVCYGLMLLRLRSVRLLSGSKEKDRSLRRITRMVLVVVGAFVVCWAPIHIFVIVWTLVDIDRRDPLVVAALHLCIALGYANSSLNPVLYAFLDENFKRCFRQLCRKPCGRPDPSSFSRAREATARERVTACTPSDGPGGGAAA
Sequence of β1 adrenergic receptor (P08588 whole entry, species assumed): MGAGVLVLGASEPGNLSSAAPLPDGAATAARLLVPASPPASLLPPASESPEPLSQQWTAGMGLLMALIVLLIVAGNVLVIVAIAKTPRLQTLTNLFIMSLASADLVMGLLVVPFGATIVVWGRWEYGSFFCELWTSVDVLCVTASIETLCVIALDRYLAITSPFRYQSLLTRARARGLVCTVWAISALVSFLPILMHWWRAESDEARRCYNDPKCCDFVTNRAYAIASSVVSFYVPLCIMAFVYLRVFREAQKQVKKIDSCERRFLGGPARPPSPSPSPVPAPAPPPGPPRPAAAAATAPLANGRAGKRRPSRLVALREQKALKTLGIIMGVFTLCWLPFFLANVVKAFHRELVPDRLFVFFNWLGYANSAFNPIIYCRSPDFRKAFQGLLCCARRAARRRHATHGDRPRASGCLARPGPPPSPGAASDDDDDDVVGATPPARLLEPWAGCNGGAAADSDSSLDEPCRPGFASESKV

Structure (SMILES)	inhibition at 10 µM ([1]; single concentration 10 µM)	inhibition at 10 µM ([2]; single concentration 10 µM)	inhibition at 10 µM ([3]; single concentration 10 µM)	inhibition at 10 µM ([4]; single concentration 10 µM)	inhibition at 10 µM ([5]; single concentration 10 µM)	inhibition at 10 µM ([6]; single concentration 10 µM)	inhibition at 10 µM ([7]; single concentration 10 µM)	inhibition at 10 µM ([8]; single concentration 10 µM)	Ki [2]	Ki [8]	inhibition at 10 µM ([9]; single concentration 10 µM)	Ki [4]	also measured
CNC(=O)[C@@]12C[C@@H]1[C@@H](n1cnc3c(NC)nc(C#Cc4ccc(F)c(F)c4)nc31)[C@H](O)[C@@H]2O [Compound 5]	0%	0%	9%	0%	0%	9%	0%	33%					
O[C@@H]1[C@H](O)[C@@H]2C[C@@H]2[C@H]1n1cnc2c(NCc3cccc(Cl)c3)nc(C#Cc3ccc(F)c(F)c3)nc21 [Compound 6]	0%	0%	6%	14%	13%	11%	5%	69%	5970 ± 1530 nM	2940 ± 1500 nM			
O[C@@H]1[C@H](O)[C@@H]2C[C@@H]2[C@H]1n1cnc2c(NCc3cccc(Cl)c3)ncnc21 [Compound 7]	0%	42%	0%	26%	15%	7%	30%	66%	6340 ± 1470 nM	2680 ± 470 nM	0%		
CNC(=O)[C@@]12C[C@@H]1[C@@H](n1cnc3c(NCc4cccc(Cl)c4)nc(C#Cc4ccc(F)c(F)c4)nc31)[C@H](O)[C@@H]2O [Compound 1]									2860 ± 1110 nM	908 ± 294 nM		4770 ± 1430 nM	inhibition at 10 µM [9]: 17%; inhibition at 10 µM [1]: 8%; inhibition at 10 µM [2]: 49%; inhibition at 10 µM [3]: 0%; inhibition at 10 µM [4]: 19%; inhibition at 10 µM [5]: 10%; Ki [6]: 2440 ± 1540 nM; inhibition at 10 µM [6]: 44%; inhibition at 10 µM [7]: 3%; inhibition at 10 µM [8]: 0%
CNC(=O)[C@@]12C[C@@H]1[C@@H](n1cnc3c(NCc4cccc(Cl)c4)nc(C#Cc4ccccc4Cl)nc31)[C@H](O)[C@@H]2O [Compound 3]	0%	8%	2%	22%	16%	31%	20%	42%	6480 ± 2940 nM		9%		
Clc1cccc(CNc2nc(Cl)nc3[nH]cnc23)c1 [Compound 9]	3%	95%	37%	58%	26%	7%	0%	0%	61 ± 20 nM		5%	3000 ± 510 nM	
CNC(=O)[C@@]12C[C@@H]1[C@@H](n1cnc3c(NCc4cccc(Cl)c4)nc(Cl)nc31)[C@H](O)[C@@H]2O [Compound 4]	0%	21%	0%	26%	3%	10%	0%	0%					
O[C@@H]1[C@H](O)[C@@H]2C[C@@H]2[C@H]1n1cnc2c(NC(C3CC3)C3CC3)nc(Cl)nc21 [Compound 10]	8%	15%	4%	17%	1%	0%	13%	0%			6%		
CNC(=O)[C@@]12C[C@@H]1[C@@H](n1cnc3c(NCc4cccc(Cl)c4)nc(C#Cc4ccc(F)cc4)nc31)[C@H](O)[C@@H]2O [Compound 2]	0%	12%	0%	6%	7%	24%	6%	30%			28%		Ki [6]: 6620 ± 1700 nM
Fc1ccc(C#Cc2nc(NCc3cccc(Cl)c3)c3nc[nH]c3n2)cc1F [Compound 8]	0%	63%	0%	34%	0%	12%	0%	14%	1090 ± 140 nM		5%	2190 ± 270 nM	

Reference: article PMC4032265 (PLoS ONE, 2014)
